Laboratory results from ChEMBL document CHEMBL1201862, “PubChem BioAssay data set” (2004).
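Five compound concentrations were applied to cells in 96-well plates for 48 hours; endpoints were derived by simple linear interpolation of the resulting dose-response curve. GI50 is the concentration that inhibits growth by half.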 Calls of active or inactive are those of the source. Rule as the data show it: active = GI50 up to about 1.1 µM and inactive = higher.

What was measured:
Assay in all cases: growth of human tumour cells (NCI), 48 h
786-0 = test system: 786-0
A549 = test system: A549
ACHN = test system: ACHN
BT-549 = test system: BT-549
CAKI-1 = test system: CAKI-1
HL-60 = test system: HL-60
Hs-578T = test system: Hs-578T
IGROV-1 = test system: IGROV-1
K562 = test system: K562
LOX IMVI = test system: LOX IMVI
MDA-MB-435 = test system: MDA-MB-435
Malme-3M = test system: Malme-3M
NCI/ADR-RES = test system: NCI/ADR-RES
RPMI-8226 = test system: RPMI-8226
SK-MEL-28 = test system: SK-MEL-28
SK-MEL-2 = test system: SK-MEL-2
SK-MEL-5 = test system: SK-MEL-5
SNB-19 = test system: SNB-19
T47D = test system: T47D
UO-31 = test system: UO-31

Row | SMILES | GI50 (786-0) | GI50 (A549) | GI50 (ACHN) | GI50 (BT-549) | GI50 (CAKI-1) | GI50 (HL-60) | GI50 (Hs-578T) | GI50 (IGROV-1) | GI50 (K562) | GI50 (LOX IMVI) | GI50 (MDA-MB-435) | GI50 (Malme-3M) | GI50 (NCI/ADR-RES) | GI50 (RPMI-8226) | GI50 (SK-MEL-28) | GI50 (SK-MEL-2) | GI50 (SK-MEL-5) | GI50 (SNB-19) | GI50 (T47D) | GI50 (UO-31)
1 | Cc1cc(OCc2nnc3sc(NC(=O)c4ccccc4)nn23)ccc1Cl | 33.1 µM (inactive) | 33.1 µM (inactive) | 20.5 µM (inactive) | 41.7 µM (inactive) | 18 µM (inactive) | 34.6 µM (inactive) | 32.1 µM (inactive) | 25.4 µM (inactive) | 94.2 µM (inactive) | 30.1 µM (inactive) | 22 µM (inactive) | 21.4 µM (inactive) | 37 µM (inactive) | 26.7 µM (inactive) | 67.5 µM (inactive) | 28.8 µM (inactive) | 32.4 µM (inactive) | 33.9 µM (inactive) | 44.4 µM (inactive) | 19 µM (inactive)
2 | O=C1OC(CCCN2CCCCC2)(c2ccccc2)CC12CCCC2 (stereo not given) | > 100 µM (inactive) | > 100 µM (inactive) | > 100 µM (inactive) | > 100 µM (inactive) | > 100 µM (inactive) | 52.5 µM (inactive) | 63.1 µM (inactive) | > 100 µM (inactive) | 40.5 µM (inactive) | > 72.1 µM (inactive) | 67.8 µM (inactive) | 35.6 µM (inactive) | > 100 µM (inactive) | 50 µM (inactive) | 22.3 µM (inactive) | > 100 µM (inactive) | 18.7 µM (inactive) | > 100 µM (inactive) | > 100 µM (inactive) | 73.1 µM (inactive)
3 | CCOC(=O)P(=O)(O)c1ccc(N(C)Cc2ccccc2)cc1 | > 100 µM (inactive) | > 100 µM (inactive) | > 100 µM (inactive) | > 100 µM (inactive) | > 100 µM (inactive) | > 100 µM (inactive) | > 100 µM (inactive) | > 100 µM (inactive) | > 100 µM (inactive) | > 100 µM (inactive) | > 100 µM (inactive) | > 100 µM (inactive) | > 100 µM (inactive) | > 100 µM (inactive) | > 100 µM (inactive) | > 100 µM (inactive) | > 100 µM (inactive) | > 100 µM (inactive) | > 100 µM (inactive) | > 100 µM (inactive)
4 | O=c1oc2c(ccc3ccccc32)cc1C1=CSC2=NCCN12 | 38.7 µM (inactive) | 27.1 µM (inactive) | 35.2 µM (inactive) | 26.2 µM (inactive) | 75.5 µM (inactive) | 34.7 µM (inactive) | 73.1 µM (inactive) | 32.7 µM (inactive) | 33.4 µM (inactive) | 49.7 µM (inactive) | 53.3 µM (inactive) | 58.6 µM (inactive) | 75.2 µM (inactive) | 42.6 µM (inactive) | 35.2 µM (inactive) | > 100 µM (inactive) | 46.3 µM (inactive) | 38.6 µM (inactive) | 30.5 µM (inactive) | 23.3 µM (inactive)
5 | C=CCc1c(Cl)nc(Cl)nc1Cl | 0.0918 µM (active) | 2.04 µM (inactive) | 0.346 µM (active) | 0.0474 µM (active) | 0.0176 µM (active) | > 100 µM (inactive) | 0.368 µM (active) | 0.323 µM (active) | < 0.0151 µM (active) | < 0.0115 µM (active) | 0.321 µM (active) | 0.159 µM (active) | 0.853 µM (active) | 0.301 µM (active) | 0.431 µM (active) | 0.478 µM (active) | 0.0818 µM (active) | 0.859 µM (active) | 0.313 µM (active) | 0.0748 µM (active)
6 | Nc1nc(Cl)cc(NCC2(CO)CCC2)n1 | > 100 µM (inactive) | > 100 µM (inactive) | > 100 µM (inactive) | > 100 µM (inactive) | > 100 µM (inactive) | > 100 µM (inactive) | > 100 µM (inactive) | > 100 µM (inactive) | > 100 µM (inactive) | > 100 µM (inactive) | > 100 µM (inactive) | > 100 µM (inactive) | > 100 µM (inactive) | > 100 µM (inactive) | > 100 µM (inactive) | > 100 µM (inactive) | > 100 µM (inactive) | > 100 µM (inactive) | 29.7 µM (inactive) | > 100 µM (inactive)
